In patent US20080280996A1, “Use of Carophyllenes in the Manufacture of Medicaments and Treatment of Bodily Conditions of Inflammation and Inflammatory Pain” (priority 2004, published 2008):

What was measured:
IL-1β = assay: Levels of pro-inflammatory cytokine IL-1β in carrageenin-injected rat paw (Elisa); assay type: in vivo; details: 50 mg/kg orally 60 minutes before carrageenin 300 μg/paw, tissue after 180 minutes
Procedure: (§1) The test used below is described by Campos et. al. in the publication Br. J. Pharmacol. 135: 1107-1114, 2002, with minor modifications. Male 160-180 g rats were orally given 50 mg/kg of alpha-humulene. Animals treated with 0.9% (0.1 ml/10 g) saline were used as control. Another group of animals was treated with 0.5 mg/kg dexamethasone, subcutaneously, 4 hours before the test, and used as positive control. After 60 minutes, the animals received intraplantar injections of 100 μl of carrageenin (300 μg/paw) and were sacrificed after 180 minutes. Control animals received saline. The subcutaneous tissue of the injected paws was removed and put in a phosphate buffer containing 0.5% tween 20, 0.1 mM benzametonium chloride, 10 mM EDTA, 2 μg/m aprotinin, 0.1 mM PMSF (phenyl methyl sulfonyl fluoride) and 0.5% BSA (bovine serum albumin). The tissues were homogenized and centrifuged at 3000 g, for 10 min, at −4° C. The supernatant was used in the test. The levels of IL-1β were measures with an Elisa kit, according to the manufacturer's instructions (R & D Systems®, USA). The tests were performed in duplicate, and repeated three times. The answers are expressed in pg/mg of tissue. […]

TNFα = assay: Levels of pro-inflammatory cytokine TNFα in carrageenin-injected rat paw (Elisa); assay type: in vivo; details: 50 mg/kg orally 60 minutes before carrageenin 300 μg/paw, tissue after 180 minutes
Procedure: The test used below is described by Campos et. al. in the publication Br. J. Pharmacol. 135: 1107-1114, 2002, with minor modifications.
as §1, with “Male” for “The test used below is described by Campos et. al. in the publication Br. J. Pharmacol. 135: 1107-1114, 2002, with minor modifications. Male”, “[…]-180” for “160-180”, “trans-caryophyllene.” for “alpha-humulene.”, “TNFαwere” for “IL-1β were”

Compound: C/C1=C\CC/C(C)=C/CC(C)(C)/C=C/C1 [alpha-humulene]
- production of pro-inflammatory cytokine IL-1β induced by carrageenin in the paws of rats (IL-1β): markedly inhibited the production

Compound: C=C1CC/C=C(\C)CC[C@@H]2[C@@H]1CC2(C)C [trans-caryophyllene]
- production of pro-inflammatory cytokine TNFα induced by carrageenin in the paws of rats (TNFα): markedly inhibited the production
